Measurements reported in article PMC5448077, “Development of an orally available inhibitor of CLK1 for skipping a mutated dystrophin exon in Duchenne muscular dystrophy” (Scientific Reports, 2017).

Tests used:
Test in all cases: biochemical
ACK = target: T1, ACK (Homo sapiens, UniProt Q07912)
T1 construct: gene TNK2
Method in brief: (§1)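 Reactions at room temperature in HEPES buffer (20 mM, pH 7.5, 0.01% Triton X-100, 2 mM DTT) lasted 1 or 5 h depending on kinase, with substrate peptide and ATP-metal. Phosphorylation read by electrophoretic mobility shift or IMAP polarization; kinase activity computed as P/(P + S).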

ALK(C1156Y) = ALK(C1156Y) (Homo sapiens, UniProt Q9UM73, C1156Y)
Chain of ALK(C1156Y) (Q9UM73 whole entry C1156Y): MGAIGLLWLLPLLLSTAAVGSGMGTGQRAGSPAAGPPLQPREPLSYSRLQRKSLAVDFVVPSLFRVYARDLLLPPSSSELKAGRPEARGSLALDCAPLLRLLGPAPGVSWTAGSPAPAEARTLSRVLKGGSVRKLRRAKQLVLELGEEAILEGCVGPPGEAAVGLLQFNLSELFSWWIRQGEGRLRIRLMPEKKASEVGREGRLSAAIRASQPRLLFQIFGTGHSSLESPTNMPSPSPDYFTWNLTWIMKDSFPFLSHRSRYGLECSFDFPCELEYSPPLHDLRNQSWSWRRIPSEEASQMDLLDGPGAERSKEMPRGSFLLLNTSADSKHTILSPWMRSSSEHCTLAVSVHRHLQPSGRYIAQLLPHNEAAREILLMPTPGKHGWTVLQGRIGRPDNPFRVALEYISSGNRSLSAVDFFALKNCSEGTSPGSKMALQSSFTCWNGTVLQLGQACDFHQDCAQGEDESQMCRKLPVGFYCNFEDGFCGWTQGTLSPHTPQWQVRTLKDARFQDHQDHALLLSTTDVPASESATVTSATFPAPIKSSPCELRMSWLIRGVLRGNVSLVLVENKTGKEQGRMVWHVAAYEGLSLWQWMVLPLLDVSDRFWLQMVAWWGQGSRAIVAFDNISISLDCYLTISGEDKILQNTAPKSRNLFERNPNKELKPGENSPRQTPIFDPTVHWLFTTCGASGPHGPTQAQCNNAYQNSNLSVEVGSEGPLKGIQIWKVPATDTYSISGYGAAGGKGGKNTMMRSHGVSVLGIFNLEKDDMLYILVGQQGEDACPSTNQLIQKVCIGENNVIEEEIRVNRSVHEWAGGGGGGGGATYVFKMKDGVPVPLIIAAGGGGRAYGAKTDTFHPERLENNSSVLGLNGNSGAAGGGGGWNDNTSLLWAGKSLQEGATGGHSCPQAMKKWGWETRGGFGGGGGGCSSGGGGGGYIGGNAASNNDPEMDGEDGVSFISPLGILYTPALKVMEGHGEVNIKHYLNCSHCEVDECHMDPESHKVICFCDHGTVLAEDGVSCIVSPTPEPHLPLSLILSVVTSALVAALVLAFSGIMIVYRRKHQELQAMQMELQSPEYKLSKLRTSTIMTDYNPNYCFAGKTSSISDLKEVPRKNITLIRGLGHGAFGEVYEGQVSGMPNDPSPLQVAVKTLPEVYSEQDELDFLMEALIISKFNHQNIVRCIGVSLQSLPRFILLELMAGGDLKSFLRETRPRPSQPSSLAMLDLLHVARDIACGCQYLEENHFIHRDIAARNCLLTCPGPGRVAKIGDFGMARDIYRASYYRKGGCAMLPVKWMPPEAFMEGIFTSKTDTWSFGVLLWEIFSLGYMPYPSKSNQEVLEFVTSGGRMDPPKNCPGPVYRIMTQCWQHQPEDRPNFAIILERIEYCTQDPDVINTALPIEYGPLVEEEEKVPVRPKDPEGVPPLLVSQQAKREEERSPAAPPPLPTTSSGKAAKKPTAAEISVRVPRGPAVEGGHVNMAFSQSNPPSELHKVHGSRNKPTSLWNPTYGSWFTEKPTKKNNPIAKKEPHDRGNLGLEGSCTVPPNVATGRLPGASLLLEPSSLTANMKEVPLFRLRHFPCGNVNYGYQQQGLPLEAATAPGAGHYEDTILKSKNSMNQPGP
Method in brief: as §1

AMPKα2/β1/γ1 = target: T2, AMPKα2/β1/γ1 (Homo sapiens, UniProt P54646)
T2 construct: gene PRKAA2
Method in brief: as §1

BMX = BMX (Homo sapiens, UniProt P51813)
Method in brief: as §1

BRK = target: T3, BRK (Homo sapiens, UniProt Q13882)
T3 construct: gene PTK6
Method in brief: as §1

CDC2/CycB1 = target: T4, CDC2/CycB1 (Homo sapiens, UniProt P06493)
T4 construct: gene CDK1
Method in brief: as §1

CDK7/CycH/MAT1 = CDK7/CycH/MAT1 (Homo sapiens, UniProt P50613)
Method in brief: as §1

CRIK = target: T5, CRIK (Homo sapiens, UniProt O14578)
T5 construct: gene CIT
T5 sequence (O14578 whole entry): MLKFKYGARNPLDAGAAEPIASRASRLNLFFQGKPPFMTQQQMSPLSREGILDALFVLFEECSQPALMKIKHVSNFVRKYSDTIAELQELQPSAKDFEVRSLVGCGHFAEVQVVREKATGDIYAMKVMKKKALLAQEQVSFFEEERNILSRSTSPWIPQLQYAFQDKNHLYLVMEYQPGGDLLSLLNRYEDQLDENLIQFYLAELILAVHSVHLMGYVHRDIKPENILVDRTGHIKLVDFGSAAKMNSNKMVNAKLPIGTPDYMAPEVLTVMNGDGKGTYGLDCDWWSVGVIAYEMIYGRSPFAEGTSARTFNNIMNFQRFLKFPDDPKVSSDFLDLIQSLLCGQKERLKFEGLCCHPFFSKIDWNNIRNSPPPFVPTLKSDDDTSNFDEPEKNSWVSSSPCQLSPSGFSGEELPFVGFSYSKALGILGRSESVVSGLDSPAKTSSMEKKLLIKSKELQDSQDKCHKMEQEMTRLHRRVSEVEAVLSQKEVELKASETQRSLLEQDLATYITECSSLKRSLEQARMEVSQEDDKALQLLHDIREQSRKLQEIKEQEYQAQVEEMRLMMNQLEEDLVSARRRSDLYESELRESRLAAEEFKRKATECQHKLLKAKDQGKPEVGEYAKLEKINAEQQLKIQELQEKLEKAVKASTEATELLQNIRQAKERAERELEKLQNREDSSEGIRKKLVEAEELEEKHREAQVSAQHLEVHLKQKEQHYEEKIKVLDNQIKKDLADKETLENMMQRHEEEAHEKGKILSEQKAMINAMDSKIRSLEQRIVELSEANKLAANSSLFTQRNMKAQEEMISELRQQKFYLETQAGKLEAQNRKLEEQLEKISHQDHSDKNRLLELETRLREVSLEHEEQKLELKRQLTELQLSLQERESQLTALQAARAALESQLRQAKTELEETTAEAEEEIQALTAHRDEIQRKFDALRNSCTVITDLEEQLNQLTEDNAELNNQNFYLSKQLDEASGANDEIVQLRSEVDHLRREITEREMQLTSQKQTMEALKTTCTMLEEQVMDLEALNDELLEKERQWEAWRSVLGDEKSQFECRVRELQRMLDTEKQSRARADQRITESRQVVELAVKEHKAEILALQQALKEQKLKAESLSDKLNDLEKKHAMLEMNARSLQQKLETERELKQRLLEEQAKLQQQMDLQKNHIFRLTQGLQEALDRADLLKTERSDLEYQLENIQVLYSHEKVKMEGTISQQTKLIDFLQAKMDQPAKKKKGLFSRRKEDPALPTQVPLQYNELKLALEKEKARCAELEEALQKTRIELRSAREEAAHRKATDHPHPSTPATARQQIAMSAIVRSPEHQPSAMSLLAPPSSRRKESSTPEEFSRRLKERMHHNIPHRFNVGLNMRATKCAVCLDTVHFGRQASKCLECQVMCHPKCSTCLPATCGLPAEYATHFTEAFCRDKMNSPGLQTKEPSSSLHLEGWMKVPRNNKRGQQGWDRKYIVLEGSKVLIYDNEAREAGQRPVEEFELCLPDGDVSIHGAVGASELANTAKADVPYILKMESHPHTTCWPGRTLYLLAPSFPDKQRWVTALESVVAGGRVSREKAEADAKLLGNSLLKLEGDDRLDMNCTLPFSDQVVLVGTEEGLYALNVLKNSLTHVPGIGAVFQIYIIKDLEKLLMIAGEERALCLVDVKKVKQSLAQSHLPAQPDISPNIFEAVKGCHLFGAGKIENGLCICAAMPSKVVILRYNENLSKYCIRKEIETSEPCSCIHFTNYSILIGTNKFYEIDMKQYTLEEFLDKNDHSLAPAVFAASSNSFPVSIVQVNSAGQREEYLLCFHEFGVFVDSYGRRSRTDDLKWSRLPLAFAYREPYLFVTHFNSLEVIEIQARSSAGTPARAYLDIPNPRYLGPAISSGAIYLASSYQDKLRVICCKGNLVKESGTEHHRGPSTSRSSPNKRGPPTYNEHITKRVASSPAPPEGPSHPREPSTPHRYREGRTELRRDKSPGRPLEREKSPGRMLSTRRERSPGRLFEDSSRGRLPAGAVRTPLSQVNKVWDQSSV
Method in brief: as §1

CaMK2α = target: T6, CaMK2α (Homo sapiens, UniProt Q9UQM7)
T6 construct: gene CAMK2A
Method in brief: as §1

CaMK2γ = target: T7, CaMK2γ (Homo sapiens, UniProt Q13555)
T7 construct: gene CAMK2G
Method in brief: as §1

EGFR(T790M/L858R) = EGFR(T790M/L858R) (Homo sapiens, UniProt P00533, L858R/T790M)
Method in brief: as §1

Erk5 = target: T8, Erk5 (Homo sapiens, UniProt Q13164)
T8 construct: gene MAPK7
Method in brief: as §1

FGFR1 = FGFR1 (Homo sapiens, UniProt P11362)
Method in brief: as §1

FLT1 = FLT1 (Homo sapiens, UniProt P17948)
Method in brief: as §1

FYN(isoform b) = target: T9, FYN(isoform b) (Homo sapiens, UniProt P06241)
T9 construct: isoform b
Method in brief: as §1

HCK = HCK (Homo sapiens, UniProt P08631)
Chain of HCK (P08631 whole entry): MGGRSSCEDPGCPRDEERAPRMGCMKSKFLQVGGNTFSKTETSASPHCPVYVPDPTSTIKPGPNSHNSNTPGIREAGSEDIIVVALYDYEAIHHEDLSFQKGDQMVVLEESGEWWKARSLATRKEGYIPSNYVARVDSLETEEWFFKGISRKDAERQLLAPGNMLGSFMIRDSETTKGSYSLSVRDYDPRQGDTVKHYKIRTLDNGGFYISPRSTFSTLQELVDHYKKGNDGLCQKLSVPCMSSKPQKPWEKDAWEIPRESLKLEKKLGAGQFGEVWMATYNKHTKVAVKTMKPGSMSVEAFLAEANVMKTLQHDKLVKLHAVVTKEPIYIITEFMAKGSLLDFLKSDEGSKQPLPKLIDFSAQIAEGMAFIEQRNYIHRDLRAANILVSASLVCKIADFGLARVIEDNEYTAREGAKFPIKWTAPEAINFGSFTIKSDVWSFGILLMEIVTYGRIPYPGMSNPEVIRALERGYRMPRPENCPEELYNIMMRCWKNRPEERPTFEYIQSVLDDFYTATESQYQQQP
Method in brief: as §1

HER4 = target: T10, HER4 (Homo sapiens, UniProt Q15303)
T10 construct: gene ERBB4
Method in brief: as §1

LYNa = target: T11, LYNa (Homo sapiens, UniProt P07948)
T11 construct: gene LYN; isoform a
Method in brief: as §1

MARK1 = MARK1 (Homo sapiens, UniProt Q9P0L2)
Method in brief: as §1

MRCKα = target: T12, MRCKα (Homo sapiens, UniProt Q5VT25)
T12 construct: gene CDC42BPA
Method in brief: as §1

NEK9 = NEK9 (Homo sapiens, UniProt Q8TD19)
Method in brief: as §1

PDGFRα(V561D) = target: T13, PDGFRα(V561D) (Homo sapiens, UniProt P16234, V561D)
T13 construct: gene PDGFRA
Method in brief: as §1

PGK = target: T14, PGK (Homo sapiens, UniProt Q13976)
T14 construct: gene PRKG1
T14 sequence (Q13976 whole entry): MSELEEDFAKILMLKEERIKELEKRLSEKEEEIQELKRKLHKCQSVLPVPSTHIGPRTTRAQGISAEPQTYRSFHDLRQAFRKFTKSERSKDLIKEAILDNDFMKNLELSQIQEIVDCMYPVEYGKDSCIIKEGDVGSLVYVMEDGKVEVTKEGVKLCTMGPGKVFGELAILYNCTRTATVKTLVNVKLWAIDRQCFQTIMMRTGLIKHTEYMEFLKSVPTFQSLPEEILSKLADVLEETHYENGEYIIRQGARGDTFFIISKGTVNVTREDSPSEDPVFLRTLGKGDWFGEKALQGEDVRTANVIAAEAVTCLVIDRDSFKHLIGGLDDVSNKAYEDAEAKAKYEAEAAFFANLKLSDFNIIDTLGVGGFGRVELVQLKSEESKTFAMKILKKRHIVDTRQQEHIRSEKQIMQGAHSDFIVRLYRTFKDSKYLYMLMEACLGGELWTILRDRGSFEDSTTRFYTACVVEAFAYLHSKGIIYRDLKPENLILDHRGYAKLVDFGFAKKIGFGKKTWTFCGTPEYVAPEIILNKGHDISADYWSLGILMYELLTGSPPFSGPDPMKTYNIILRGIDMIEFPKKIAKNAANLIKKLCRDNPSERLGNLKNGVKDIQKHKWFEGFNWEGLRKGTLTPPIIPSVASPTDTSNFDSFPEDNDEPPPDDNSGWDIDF
Method in brief: as §1

PIM3 = PIM3 (Homo sapiens, UniProt Q86V86)
Method in brief: as §1

PKACα = target: T15, PKACα (Homo sapiens, UniProt P17612)
T15 construct: gene PRKACA
Method in brief: as §1

PKCδ = target: T16, PKCδ (Homo sapiens, UniProt Q05655)
T16 construct: gene PRKCD
Method in brief: as §1

PKCζ = target: T17, PKCζ (Homo sapiens, UniProt Q05513)
T17 construct: gene PRKCZ
Method in brief: as §1

RET = RET (Homo sapiens, UniProt P07949)
Method in brief: as §1

RSK1 = target: T18, RSK1 (Homo sapiens, UniProt Q15418)
T18 construct: gene RPS6KA1
Method in brief: as §1

p38γ = target: T19, p38γ (Homo sapiens, UniProt P53778)
T19 construct: gene MAPK12
Method in brief: as §1

## c1cc(-c2ccc3[nH]ncc3c2)ccn1 [TG693, 5-(4-pyridinyl)-1H-indazole]
ACK
  inhibition at 1 µM: -1.1%
ALK(C1156Y)
  inhibition at 1 µM: 0.1%
AMPKα2/β1/γ1
  inhibition at 1 µM: 1.7%
BMX
  inhibition at 1 µM: 4.6%
BRK
  inhibition at 1 µM: 5.2%
CDC2/CycB1
  inhibition at 1 µM: 10.3%
CDK7/CycH/MAT1
  inhibition at 1 µM: 6.2%
CRIK
  inhibition at 1 µM: 16.9%
CaMK2α
  inhibition at 1 µM: -3.3%
CaMK2γ
  inhibition at 1 µM: -2.4%
EGFR(T790M/L858R)
  inhibition at 1 µM: 1.3%
Erk5
  inhibition at 1 µM: 2.2%
FGFR1
  inhibition at 1 µM: 6.9%
FLT1
  inhibition at 1 µM: 5.9%
FYN(isoform b)
  inhibition at 1 µM: 0.6%
HCK
  inhibition at 1 µM: -3%
HER4
  inhibition at 1 µM: 5.8%
LYNa
  inhibition at 1 µM: 0.1%
MARK1
  inhibition at 1 µM: 13.3%
MRCKα
  inhibition at 1 µM: -18.2%
NEK9
  inhibition at 1 µM: -5.1%
PDGFRα(V561D)
  inhibition at 1 µM: 2.7%
PGK
  inhibition at 1 µM: 11%
PIM3
  inhibition at 1 µM: 6.6%
PKACα
  inhibition at 1 µM: 9.5%
PKCδ
  inhibition at 1 µM: 1.5%
PKCζ
  inhibition at 1 µM: -9.7%
RET
  inhibition at 1 µM: 4.8%
RSK1
  inhibition at 1 µM: -4.7%
p38γ
  inhibition at 1 µM: 1.4%
